Measurements published in patent US20130096067A1, “DROSOPHILA TUMOR STEM CELL MODEL AND USES THEREOF” (priority 2011, published 2013).
Several values for one entry are separate records, joined by “and”; a condition that tells them apart may be missing. Equal values may be shown once. Read-outs that look alike come from different tables or passages of the source.

Test system: Raf-1^gof intestinal tumors
Conditions: for Log2 (fold) of luciferase activity relative to DMSO controls / Fold (luciferase activity relative to DMSO controls): ICCB compounds fed in vials to flies with one-day old Raf-1^gof tumors
[1] = screen of 480 ICCB compounds in vials, compounds fed to flies with one-day old Raf-1^gof tumors, assessed three days later, esg-Gal4 luciferase
[2] = screen of 480 ICCB compounds in vials, compounds fed to flies with one-day old Raf-1^gof tumors, assessed three days later, esg-Gal4 luciferase, averaged from multiple wells
[3] = assessed three days later, averaged from multiple wells
Note: test concentration or dose not given here.

## COC(=O)C1=C(C)NC(C)=C(C(=O)OCCN(C)Cc2ccccc2)C1c1cccc([N+](=O)[O-])c1 (stereo not drawn) [NICARDIPINE]
[1]
  Log2 (fold) (luciferase activity, log2 of the fold difference relative to DMSO controls): −0.433
[2]
  Fold (luciferase activity, fold difference relative to DMSO controls): 0.741

## COCCCCCCCCCCCC(=O)O [12-METHOXYDODECANOIC ACID]
[1]
  Log2 (fold) (luciferase activity, log2 of the fold difference relative to DMSO controls): −0.320
[2]
  Fold (luciferase activity, fold difference relative to DMSO controls): 0.801

## BW-B 70C
Assessed three days later
  Log2 (fold) of luciferase activity relative to DMSO controls: 0.116
[3]
  Fold (luciferase activity relative to DMSO controls): 1.084 fold

## CC(C)(c1ccc(OCC2CO2)cc1)c1ccc(OCC2CO2)cc1 (stereo not drawn) [BADGE]
Assessed three days later
  Log2 (fold) of luciferase activity relative to DMSO controls: 0.345
[3]
  Fold (luciferase activity relative to DMSO controls): 1.270 fold

## COc1ccc([C@@H]2Sc3ccccc3N(CCN(C)C)C(=O)[C@@H]2OC(C)=O)cc1 [DILTIAZEM]
Assessed three days later
  Log2 (fold) of luciferase activity relative to DMSO controls: −0.205
[3]
  Fold (luciferase activity relative to DMSO controls): 0.868 fold

## C=C1[C@@H](C)[C@H]2[C@H](Cc3ccccc3)NC(=O)[C@]23OC(=O)/C=C/[C@H](O)CCC[C@@H](C)C/C=C/[C@H]3[C@@H]1O [cytochalasin B]
[1]
  Log2 (fold) (luciferase activity, log2 of the fold difference relative to DMSO controls): −0.677
[2]
  Fold (luciferase activity, fold difference relative to DMSO controls): 0.625

## CCCCCC(O)c1cccc(OCc2ccc3ccccc3n2)c1 (stereo not drawn) [REV-5901]
[1]
  Log2 (fold) (luciferase activity, log2 of the fold difference relative to DMSO controls): −0.282
[2]
  Fold (luciferase activity, fold difference relative to DMSO controls): 0.822

## O=c1c2ccccc2[se]n1-c1ccccc1 [Ebselen]
Assessed three days later
  Log2 (fold) of luciferase activity relative to DMSO controls: −0.168
[3]
  Fold (luciferase activity relative to DMSO controls): 0.890 fold

## CCCCC/C=C\C/C=C\C/C=C\C/C=C\CCCC(N)=O [ARACHIDONAMIDE]
Assessed three days later
  Log2 (fold) of luciferase activity relative to DMSO controls: −0.069
[3]
  Fold (luciferase activity relative to DMSO controls): 0.954 fold

## CCCCC[C@@H](/C=C/C=C\CCCCCCCC(=O)O)OO [13(S)-HPODE]
Assessed three days later
  Log2 (fold) of luciferase activity relative to DMSO controls: 0.309
[3]
  Fold (luciferase activity relative to DMSO controls): 1.239 fold

## Nc1ncnc2c1ncn2C1CCCO1 (stereo not drawn) [SQ22536]
[1]
  Log2 (fold) (luciferase activity, log2 of the fold difference relative to DMSO controls): −0.270
[2]
  Fold (luciferase activity, fold difference relative to DMSO controls): 0.829

## CCCC[C@@H](C)[C@@H](OC(=O)C[C@@H](CC(=O)O)C(=O)O)[C@H](C[C@@H](C)C[C@H](O)CCCC[C@@H](O)C[C@H](O)[C@H](C)N)OC(=O)C[C@@H](CC(=O)O)C(=O)O [Fumonisin B1]
[1]
  Log2 (fold) (luciferase activity, log2 of the fold difference relative to DMSO controls): −0.685
[2]
  Fold (luciferase activity, fold difference relative to DMSO controls): 0.622

## O[C@H]1[C@H](O)[C@@H](O)CN2CC[C@H](O)[C@H]12 [castanospermine]
[1]
  Log2 (fold) (luciferase activity, log2 of the fold difference relative to DMSO controls): −0.351
[2]
  Fold (luciferase activity, fold difference relative to DMSO controls): 0.784

## CC1=C(/C=C/C(C)=C\C=C\C(C)=C\C(=O)O)C(C)(C)CCC1 [9-CIS RETINOIC ACID]
[1]
  Log2 (fold) (luciferase activity, log2 of the fold difference relative to DMSO controls): −0.578
[2]
  Fold (luciferase activity, fold difference relative to DMSO controls): 0.670

## CCCCC/C=C\C[C@H](O)/C=C/C=C\C/C=C\CCCC(=O)O [12(S)-HETE]
Assessed three days later
  Log2 (fold) of luciferase activity relative to DMSO controls: 0.055
[3]
  Fold (luciferase activity relative to DMSO controls): 1.039 fold

## C/C(O)=C(\C#N)C(=O)Nc1cc(Br)ccc1Br [LFM-A13]
[1]
  Log2 (fold) (luciferase activity, log2 of the fold difference relative to DMSO controls): −0.417
[2]
  Fold (luciferase activity, fold difference relative to DMSO controls): 0.749

## CCOC(=O)C(C)(C)Oc1ccc(Cl)cc1 [CLOFIBRATE]
Assessed three days later
  Log2 (fold) of luciferase activity relative to DMSO controls: 0.221
[3]
  Fold (luciferase activity relative to DMSO controls): 1.165 fold

## CCCCC/C=C\C/C=C\C/C=C\CCCCCCC(=O)NCCO [ANANDAMIDE (20:3, n-6)]
[1]
  Log2 (fold) (luciferase activity, log2 of the fold difference relative to DMSO controls): −0.653
[2]
  Fold (luciferase activity, fold difference relative to DMSO controls): 0.636

## O=C([O-])CCC/C=C\CC1C(O)CC(O)C1/C=C/C(O)COc1cccc(Cl)c1.[Na+] (stereo not drawn) [CLOPROSTENOL Na]
Assessed three days later
  Log2 (fold) of luciferase activity relative to DMSO controls: 0.101
[3]
  Fold (luciferase activity relative to DMSO controls): 1.073 fold

## O=c1[nH]c2ccccc2n1C1CCN(CCCC(c2ccc(F)cc2)c2ccc(F)cc2)CC1 [PIMOZIDE]
[1]
  Log2 (fold) (luciferase activity, log2 of the fold difference relative to DMSO controls): −0.425
[2]
  Fold (luciferase activity, fold difference relative to DMSO controls): 0.745

## CCCCCCCC/C=C\CCCCCCCC(=O)OCC(CO)OC(C)=O (stereo not drawn) [1-OLEOYL-2-ACETYL-GLYCEROL]
[1]
  Log2 (fold) (luciferase activity, log2 of the fold difference relative to DMSO controls): −0.727 and −0.716
[2]
  Fold (luciferase activity, fold difference relative to DMSO controls): 0.604 and 0.609

## Cn1cnc2c(NCc3ccccc3)nc(NCCO)nc21 [olomoucine]
[1]
  Log2 (fold) (luciferase activity, log2 of the fold difference relative to DMSO controls): −0.406
[2]
  Fold (luciferase activity, fold difference relative to DMSO controls): 0.755

## CCOC(=O)C1=C(C)NC(C)=C(C(=O)OC)C1c1cccc([N+](=O)[O-])c1 (stereo not drawn) [NITRENDIPINE]
[1]
  Log2 (fold) (luciferase activity, log2 of the fold difference relative to DMSO controls): −0.400
[2]
  Fold (luciferase activity, fold difference relative to DMSO controls): 0.758

## CCCCCC(=O)/C=C/C=C\CCCCCCCC(=O)O [13-KETOOCTADECADIENOIC ACID]
Assessed three days later
  Log2 (fold) of luciferase activity relative to DMSO controls: 0.320
[3]
  Fold (luciferase activity relative to DMSO controls): 1.248 fold

## CCCCCCCCCCCCCCCCOCC(COP(=O)([O-])OCC[N+](C)(C)C)OC (stereo not drawn) [1-HEXADECYL-2-METHYLGLYCERO-3 PC]
Assessed three days later
  Log2 (fold) of luciferase activity relative to DMSO controls: 0.060
[3]
  Fold (luciferase activity relative to DMSO controls): 1.042 fold

## COc1ccc(CCCOC(Cn2ccnc2)c2ccc(OC)cc2)cc1 (stereo not drawn) [SKF-96365]
Assessed three days later
  Log2 (fold) of luciferase activity relative to DMSO controls: 0.134
[3]
  Fold (luciferase activity relative to DMSO controls): 1.097 fold

## CCCC[C@@H](C=O)NC(=O)[C@H](CC(C)C)NC(=O)OCc1ccccc1 [calpeptin]
[1]
  Log2 (fold) (luciferase activity, log2 of the fold difference relative to DMSO controls): −0.235
[2]
  Fold (luciferase activity, fold difference relative to DMSO controls): 0.849

## c1ccc2c(Cc3c[nH]c4ccccc34)c[nH]c2c1 [DIINDOLYLMETHANE]
Assessed three days later
  Log2 (fold) of luciferase activity relative to DMSO controls: 0.465
[3]
  Fold (luciferase activity relative to DMSO controls): 1.381 fold

## CCCCCCCCCCCCC/C=C/[C@@H](O)[C@H](CO)N(C)C [N,N-DIMETHYLSPHINGOSINE]
[1]
  Log2 (fold) (luciferase activity, log2 of the fold difference relative to DMSO controls): −0.487
[2]
  Fold (luciferase activity, fold difference relative to DMSO controls): 0.713

## CCCCC/C=C\C/C=C\C/C=C\C/C=C\CCCC(=O)N[C@H](C)CO [(R)-METHANANDAMIDE]
Assessed three days later
  Log2 (fold) of luciferase activity relative to DMSO controls: 0.068
[3]
  Fold (luciferase activity relative to DMSO controls): 1.049 fold

## CC(C)(C)n1nc(-c2ccc(Cl)cc2)c2c(N)ncnc21 [PP2]
Assessed three days later
  Log2 (fold) of luciferase activity relative to DMSO controls: 0.062
[3]
  Fold (luciferase activity relative to DMSO controls): 1.044 fold

## Cc1ccc(N(CC2=NCCN2)c2cccc(O)c2)cc1 [PHENTOLAMINE]
[1]
  Log2 (fold) (luciferase activity, log2 of the fold difference relative to DMSO controls): −0.321
[2]
  Fold (luciferase activity, fold difference relative to DMSO controls): 0.800

## N#CC(C#N)=Cc1ccc(O)cc1 [Tyrphostin-8]
In vivo
  Fold (luciferase activity, fold difference relative to DMSO controls): 0.796
  Log2 (fold) (luciferase activity, log2 of the fold difference relative to DMSO controls): −0.329

## CCCCC/C=C\C/C=C\C/C=C\C/C=C\CCCC(=O)NCc1ccc(O)c(OC)c1 [Arvanil]
[1]
  Log2 (fold) (luciferase activity, log2 of the fold difference relative to DMSO controls): −0.482
[2]
  Fold (luciferase activity, fold difference relative to DMSO controls): 0.716

## N#CC(=Cc1ccc2[nH]ccc2c1)C(N)=C(C#N)C#N [tyrphostin AG-370]
Assessed three days later
  Log2 (fold) of luciferase activity relative to DMSO controls: 0.314
[3]
  Fold (luciferase activity relative to DMSO controls): 1.243 fold

## C=C1O[C@@](CO)(n2cnc3c(N)ncnc32)[C@H](O)[C@@H]1O [decoyinine]
[1]
  Log2 (fold) (luciferase activity, log2 of the fold difference relative to DMSO controls): −0.298
[2]
  Fold (luciferase activity, fold difference relative to DMSO controls): 0.813
